This is an account of results in US4401659A, “Muramyl-peptides fixed to peptide-polymers and pharmaceutical compositions containing them” (Agence National de Valorisation de la Recherche (ANVAR), priority 1979, dated 1983).

Series [1] in a line: Sensitisation trials: plantar injection in IFA or CFA, dermal injection three weeks later. As to the method:
These trials were undertaken to study the possible immunogenic properties of the products according to the invention. At the same time, sensitisation tests with respect to various products were carried out.
The tests were carried out on guinea-pigs. The preparations shown in column 1 of the Table of the results were injected by the plantar route. They comprise 100 μg of the product tested incorporated in incomplete FREUND adjuvant (IFA) or in complete FREUND adjuvant (CFA).
Three weeks after this first injection, 50 μg of the products indicated in the upper portion of the Table of results were injected by the dermal route. Possible reactions were observed 48 hours later.

The subject of the next series is Klebsiella. Description: Anti-infectious activity with respect to Klebsiella, young mice of 7 days, s.c. treatment and s.c. infection. In kind it is in vivo. As to conditions: for Number of survivors at D + 8: controls 0 of 53; for Number of survivors at D + 5: controls 1 of 53; for Number of survivors at D + 3: controls 5 of 53. Here is the method: In these trials, the product studied was administered, by the sub-cutaneousroute, 24 hours before the infecting test. For the latter, the infecting dose was 1.2.10^3 Klebsiella; it was also administered by the sub-cutaneous route.

The test system of another series is Klebsiella pneumoniae. Kind of series: Anti-infectious activity with respect to Klebsiella, mice treated i.v. 24 hours before i.m. inoculation. It counts as in vivo. As to conditions: for Number of survivors at D + 8: controls 4 of 32; for Number of survivors at D + 5: controls 7 of 32; for Number of survivors at D + 3: controls 16 of 32; for Percentage of protection: difference in percentages of survivors versus control group. The text has this:
The testing procedure is described in the article of CHEDID L. and Col., Proc. Natl. Acad. Sci. USA, 1977, 74, 2089.
It was shown that a dose of about 10^4 Klebsiella pneumoniae, injected by the intramuscular route in mice, results in the progressive death of a considerable part, if not the whole, of the animals in the week following the inoculation. After eight days, the survival of the animals was definitely achieved.
The survival of groups of mice inoculated under the above-indicated conditions and treated by means of the products according to the invention, was recorded.
For these trials, hybrid mice (C57Bl/6 x AKR)F1 raised in the PASTEUR […], from strains derived from the C.N.R.S. breeding station at ORLEANS were used.
The infection by Klebsiella pneumoniae, a strain of the 2-capsular type, biotype d, was done from a culture of 16 hours in a medium for pneumococci (No. 53515, […] PASTEUR). The infecting dose was 1.5.10^4 Klebsiella; it was administered by the intramuscular route.
The administration of the tested product was carried out by the intravenous route in 0.2 ml of apyrogenic physiological solution, the controls receiving the solution alone. It was carried out 24 hours before the inoculation.
The percentage of protection indicated is the difference in the percentages of survivors of the treated group with respect to the control group.

[2] abbreviates: s.c. at D-1, 1 μg, 39 young mice.
Setting [3] is: s.c. at D-1, 10 μg, 75 young mice.
[4] abbreviates: i.v. at D-1, 1 μg (weight of glycopeptide), 24 mice.
[5] abbreviates: i.v. at D-1, 10 μg (weight of glycopeptide), 32 mice.

“multi-[poly-(N-acetyl-muramyl-D-alanyl-D-isoglutaminyl)-D,L-alanyl]-poly-L-lysine [MDP(D-D)(A--L)]”: the “adjuvant to specific immunity” value in series [1] (administered with ovalbumin) is “is not adjuvant to specific immunity”. Moreover, the “sensitivity reaction with respect to itself and to adjuvant agents like MDP” value in series [1] (guinea-pigs) is “does not elicit a sensitivity reaction”. In the series on Klebsiella (setting [2]), the “Number of survivors at D + 8” value worked out at 3, the “Number of survivors at D + 5” value came out at 6 and the “Number of survivors at D + 3” value worked out at 19. In addition, in the series with Klebsiella (setting [3]), the “Number of survivors at D + 8” value turned out to be 18, the “Number of survivors at D + 5” value stood at 28 and the “Number of survivors at D + 3” value is reported as 50. For the same substance, in the series with Klebsiella pneumoniae (setting [4]), the “Number of survivors at D + 8” value stood at 6, the “Number of survivors at D + 5” value was 7, the “Number of survivors at D + 3” value amounted to 15 and the Percentage of protection was 9%. Also, in the series on Klebsiella pneumoniae (setting [5]), the “Number of survivors at D + 8” value is 17, the “Number of survivors at D + 5” value came to 19, the “Number of survivors at D + 3” value is recorded as 26 and the Percentage of protection stood at 38%.
